Measured values as given in patent US6645983B1, “Pharmaceutical compositions comprising 4-quinolones for treating cancers” (Laboratoire L. Lafon, priority 1999, dated 2003).

Assays:
[1] = Determination of the maximum tolerated dose (MTD); conditions: B6D2F1/Jico, mouse, in vivo, ip; single intraperitoneal administration, doses 2.5 to 160 mg/kg, survival over 14 days
Procedure: The evaluation of the maximum tolerated dose was performed on 4- to 6-week-old B6D2F1/Jico mice. The compounds were administered intraperitoneally at increasing doses ranging from 2.5 to 160 mg/kg. The value of the MTD (expressed in mg/kg) is determined from the observation of the survival rate of the animals over a 14-day period after a single administration of the product under consideration. The change in weight of the animals is also monitored during this period. When the MTD value is greater than 160 mg/kg, the MTD value is considered as being 160 mg/kg by default.

PC-3 = experiment: MTT test, cytotoxic activity on non-clonogenic cell lines; format: cell-based; conditions: Homo sapiens, 10^−5 M, 72 hours of incubation, control condition = 100%, mean value, read-out: mean optical density as percentage of control, PC-3
Procedure: (§1) The principle of the MTT test is based on the mitochondrial reduction, by the metabolically active live cells, of the yellow-colored product MTT (3-(4,5-dimethylthiazol-2-yl)-2,5-diphenyltetrazolium bromide) to a blue-colored product, formazan. The amount of formazan thus obtained is directly proportional to the amount of live cells present in the culture well(s). This amount of formazan is measured by spectrophotometry.
(§2) The cell lines are maintained as a monolayer culture at 37° C. in stoppered culture dishes containing MEM 25 MM HEPES (Minimum Essential Medium) base medium. This medium is suited to the growth of a range of various mammalian diploid or primary cells. This medium is then supplemented with:
(§3) The 12 human cancer cell lines which were used were obtained from the American Type Culture Collection (ATCC, Rockville, Md., USA). These 12 cell lines are:
(§4) Experimentally, 100 μl of a cell suspension containing 20 000 to 50 000 (depending on the cell type used) cells/ml of culture medium are inoculated -in 96-well flat-bottomed multi-well plates and are left to stand in an incubator at 37° C., 5% CO2 and 70% humidity. After an incubation time of 24 hours, the culture medium is replaced with 100 μl of fresh medium containing either the various test compounds—at concentrations varying from 10^−5 to 10^−10 M—or the solvent having served for dissolving the products to be tested (control condition). […] The microplates are thus incubated for 3 hours at 37° C., then centrifuged for 10 minutes at 400 g. The yellowish solution of MTT is removed and the blue formazan crystals formed in the cell region are dissolved in 100 μl or DMSO. The microplates are then shaken for 5 minutes. […] Software incorporated in the spectrophotometer calculates the average optical density values and the standard deviation (SD) and standard error of mean (SEM) values.

A549 = experiment: as above; format: cell-based; conditions: Homo sapiens, 10^−5 M, 72 hours of incubation, control condition = 100%, mean value, read-out: mean optical density as percentage of control, A549
Procedure: as §1, §2, §3, §4

U-373MG = experiment: as above; format: cell-based; conditions: Homo sapiens, U373 MG; 10^−5 M, 72 hours of incubation, control condition = 100%, mean value; read-out: mean optical density as percentage of control, U-373MG
Procedure: as §1, §2, §3, §4

MCF7 = experiment: as above; format: cell-based; conditions: Homo sapiens, 10^−5 M, 72 hours of incubation, control condition = 100%, mean value, read-out: mean optical density as percentage of control, MCF7
Procedure: as §1, §2, §3, §4

A-427 = experiment: as above; format: cell-based; conditions: Homo sapiens, 10^−5 M, 72 hours of incubation, control condition = 100%, mean value, read-out: mean optical density as percentage of control, A-427
Procedure: as §1, §2, §3, §4

T-47D = experiment: as above; format: cell-based; conditions: Homo sapiens, T47D; 10^−5 M, 72 hours of incubation, control condition = 100%, mean value; read-out: mean optical density as percentage of control, T-47D
Procedure: as §1, §2, §3, §4

HCT-15 = experiment: as above; format: cell-based; conditions: Homo sapiens, 10^−5 M, 72 hours of incubation, control condition = 100%, mean value, read-out: mean optical density as percentage of control, HCT-16
Procedure: as §1, §2, §3, §4

LoVo = experiment: as above; format: cell-based; conditions: Homo sapiens, 10^−5 M, 72 hours of incubation, control condition = 100%, mean value, read-out: mean optical density as percentage of control, LoVo
Procedure: as §1, §2, §3, §4

U-87MG = experiment: as above; format: cell-based; conditions: Homo sapiens, U-87 MG; 10^−5 M, 72 hours of incubation, control condition = 100%, mean value; read-out: mean optical density as percentage of control, U-87MG
Procedure: as §1, §2, §3, §4

T24 = experiment: as above; format: cell-based; conditions: Homo sapiens, T-24; 10^−5 M, 72 hours of incubation, control condition = 100%, mean value; read-out: mean optical density as percentage of control, T24
Procedure: as §1, §2, §3
(§5) J82 (code ATCC: HTB-1) and T24 (code ATCC: HTB-4) which are two bladder cancers,
as §4

J82 = experiment: as above; format: cell-based; conditions: Homo sapiens, 10^−5 M, 72 hours of incubation, control condition = 100%, mean value, read-out: mean optical density as percentage of control, J82
Procedure: as §1, §2, §3, §5, §4

SW1088 = experiment: as above; format: cell-based; conditions: Homo sapiens, 10^−5 M, 72 hours of incubation, control condition = 100%, mean value, read-out: mean optical density as percentage of control, SW1088
Procedure: as §1, §2, §3
SW1088 (code ATCC: HTB-12) which is an astro-cytoma,
as §4

SMILES | MTD at 14 day [1] [mg/kg] | viability at 10 µM (PC-3) [%] | viability at 10 µM (A549) [%] | viability at 10 µM (U-373MG) [%] | viability at 10 µM (MCF7) [%] | viability at 10 µM (A-427) [%] | viability at 10 µM (T-47D) [%] | viability at 10 µM (HCT-15) [%] | viability at 10 µM (LoVo) [%] | viability at 10 µM (U-87MG) [%] | viability at 10 µM (T24) [%] | viability at 10 µM (J82) [%] | viability at 10 µM (SW1088) [%]
O=c1c(-c2ccccc2)c[nH]c2ccccc12 [CRL8326, 3-Phenyl-1,4-dihydro-4-quinolinone] | > 160 | 95.4 | 104 | 96.9 | 94.1 | 101 | 50.2 | 110 | 67.7 | 102 | 92.6 | 86.9 | 108
COc1ccc(-c2c[nH]c3ccccc3c2=O)cc1 [CRL8327, 3-(4-Methoxyphenyl)-1,4-dihydro-4-quinolinone] | > 160 | 87.4 | 71.5 | 58.7 | 90.7 | 77.5 | 79 | 87.5 | 47.3 | 89 | 187 | 85.1 | 99
COc1cccc2c(=O)c(-c3ccccc3)c[nH]c12 [CRL8328, 8-Methoxy-3-phenyl-1,4-dihydro-4-quinolinone] | 80 | 91.9 | 92.5 | 98.1 | 93.7 | 101 | 96 | 85.8 | 94.3 | 85.7 | 94.8 | 95.9 | 91
COc1ccc(-c2c[nH]c3c(OC)cccc3c2=O)cc1 [CRL8329, 8-Methoxy-3-(4-methoxyphenyl)-1,4-dihydro-4-quinolinone] | > 160 | 93.1 | 96.5 | 94 | 96.3 | 102 | 78.5 | 98 | 94.6 | 1.38 | 95.4 | 96.8 | 96.2
COc1ccc(-c2c[nH]c3cc(OC)cc(OC)c3c2=O)cc1 [CRL8337, 5,7-Dimethoxy-3-(4-methoxyphenyl)-1,4-dihydro-4-quinolinone] | > 160 | 92.8 | 96.9 | 95.6 | 76.5 | 106 | 79.4 | 98.5 | 93.3 | 84.4 | 102 | 90.9 | 84.9
COc1ccc(-c2cn(C)c3cc(OC)cc(OC)c3c2=O)cc1 [CRL8340, 5,7-Dimethoxy-3-(4-methoxyphenyl)-1-methyl-1,4-dihydro-4-quinolinone] | > 160 | 84.8 | 84 | 97.9 | 72.3 | 84.2 | 66.1 | 92.5 | 93 | 87.6 | 82.8 | 90.2 | 84
CCN(CC)C(=O)Cn1cc(-c2ccc(OC)cc2)c(=O)c2c(OC)cc(OC)cc21 [CRL8349, N,N-Diethyl-2-[5,7-dimethoxy-3-(4-methoxyphenyl)-4-oxo-1,4-dihydro-1-quinolinyl]acetamide] | > 160 | 98.6 | 96.2 | 66.7 | 97.4 | 90.7 | 91 | 91.2 | 104 | 98.3 | 95.1 | 93.3 | 100
COc1ccc(-c2cn(CCN(C)C)c3cc(OC)cc(OC)c3c2=O)cc1 [CRL8350, N-[3-(Dimethylamino)ethyl]-5,7-dimethoxy-3-(4-methoxyphenyl)-1,4-dihydro-4-quinolinone] | > 160 | 95.3 | 93 | 59.5 | 181 | 99.5 | 87.1 | 95.3 | 92 | 85.6 | 86.9 | 91.5 | 101
COc1ccc(-c2c[nH]c3c(OC)ccc(OC)c3c2=O)cc1 [CRL8351, 5,8-Dimethoxy-3-(4-methoxyphenyl)-1,4-dihydro-4-quinolinone] | 40 | 83.2 | 34.6 | 52.8 | 49 | 33.7 | 55 | 39.1 | 67 | 116 | 38.4 | 39.2 | 82.3
COc1cc(OC)c2c(=O)c(-c3ccccc3)c[nH]c2c1 [CRL8352, 5,7-Dimethoxy-3-phenyl-1,4-dihydro-4-quinolinone] | > 160 | 97.3 | 94.2 | 104 | 85.6 | 103 | 105 | 106 | 103 | 158 | 83.7 | 93 | 96.8
COc1ccc(OC)c2c(=O)c(-c3ccccc3)c[nH]c12 [CRL8353, 5,8-Dimethoxy-3-phenyl-1,4-dihydro-4-quinolinone] | > 160 | 81 | 42.3 | 54.5 | 49.6 | 52.5 | 87.2 | 55.7 | 85.5 | 107 | 68.6 | 79.1 | 74
